In brackets after ≈: the same amount, converted by molar mass.
Tests used:
[1] = test system: B. thetaiotaomicron ATCC 29741; assay: Antibacterial MIC, CLSI broth microdilution; type: cell-based; details: Bacteroides thetaiotaomicron, ATCC29741; 35° C., 18-24 hours; read-out: MIC B. thetaiotaomicron ATCC 29741
Experimental: (§1) Grain (−) and gram (+) antibacterial minimum inhibitory concentration (MIC) values (μg/mL) were obtained using CLSI methodology for anti-bacterial susceptibility testing. On each day of testing, serial dilutions of compounds were prepared in microdilution plates using a Tecan robotic workstation. Mueller Hinton broth cultures of representative sensitive and resistant gram negative strains were grown or adjusted to match the turbidity of a 0.5 McFarland standard. 1:200 dilutions were made in an appropriate broth (cation supplemented Mueller Hinton broth) to allow a final inoculum of 1×10^5 cfu. Plates were incubated at 35° C. in ambient air for 18-24 hours, were read spectrophotometrically and checked manually for evidence of bacterial growth. The lowest dilution of compound that inhibited growth was recorded as the MIC. Lysed horse blood was used to supplement broth for testing S. pneumoniae. The MIC's for each compound were assessed against S. aureus, S. pneumoniae, P. acnes, E. coli and B. theta.

E. coli ATCC 25922 = assay: Antibacterial MIC, CLSI broth microdilution; type: cell-based; details: Escherichia coli, ATCC25922; 35° C., 18-24 hours
Experimental: as §1

E. coli MG 1655 = assay: Antibacterial MIC, CLSI broth microdilution; type: cell-based; details: Escherichia coli, MG1655; 35° C., 18-24 hours
Experimental: as §1

P. acnes ATCC 11827 = assay: Antibacterial MIC, CLSI broth microdilution; type: cell-based; details: Cutibacterium acnes, ATCC11827; 35° C., 18-24 hours
Experimental: as §1

P. acnes ATCC 6919 = assay: Antibacterial MIC, CLSI broth microdilution; type: cell-based; details: Cutibacterium acnes, ATCC6919; 35° C., 18-24 hours
Experimental: as §1

S. aureus RN450 [2] = assay: Antibacterial MIC, CLSI broth microdilution; type: cell-based; details: Staphylococcus aureus, RN450; 35° C., 18-24 hours
Experimental: as §1

[3] = test system: S. pneumoniae 157E - Strep; assay: Antibacterial MIC, CLSI broth microdilution; type: cell-based; details: Streptococcus pneumoniae, 157ESTREP; 35° C., 18-24 hours; lysed horse blood
Experimental: as §1

in vitro = type: cell-based
Experimental: Mammalian cell cytotoxicity was assessed to evaluate potential in vivo risks associated with the tetracycline compounds of the invention. A soluble, non-toxic redox dye (“Resazurin”; Alamar Blue) was used to assess a tetracycline compound's effect on cellular metabolism. At the onset of the experiment, cultures of mammalian COS-1 or CHO cells were washed, trypsinized, and harvested. […] On the next day, serial dilutions of test drug were prepared under sterile conditions and transferred to cell plates. Plates were then incubated under the above conditions for 24 hours. Following the incubation period, the media/drug was aspirated, and 50 μL of resazurin was added. Plates were then incubated under the above conditions for 2 hours and then in the dark at room temperature for an additional 30 minutes. Fluorescence measurements were taken (excitation 535 nm, emission 590 nm) and toxic effects in treated versus control cells were compared based on the degree of fluorescence in each well.

S. aureus RN450 [4] = assay: In vivo anti-bacterial activity, S. aureus model; details: Staphylococcus aureus, sc; mice, lethal IP S. aureus RN450, single subcutaneous dose 5 mg/kg, 24 hours; read-out: Percent Survival
Experimental: Groups of five mice were injected intraperitoneally with a lethal dose of S. aureus RN450 in a medium of mucin. Mice were evaluated at 24 hours to determine survival. […] In some instances, a dose response study was performed with the compound such that a PD50 (a dose of compound that protects 50% of the animals) could be calculated.

| SMILES | MIC [1] [µg/mL] | MIC (E. coli ATCC 25922) [µg/mL] | MIC (E. coli MG 1655) [µg/mL] | MIC (P. acnes ATCC 11827) [µg/mL] | MIC (P. acnes ATCC 6919) [µg/mL] | MIC (S. aureus RN450 [2]) [µg/mL] | MIC [3] [µg/mL] | IC50 at 24 h (in vitro; African green monkey) [µg/mL] | IC50 at 24 h (in vitro; Chinese hamster) [µg/mL] | responders at 5 mg/kg (S. aureus RN450 [4]) [%] |
| --- | --- | --- | --- | --- | --- | --- | --- | --- | --- | --- |
| CCONCc1ccc(O)c2c1C[C@H]1C[C@H]3[C@H](N(C)C)C(O)=C(C(N)=O)C(=O)[C@@]3(O)C(O)=C1C2=O [AA, (4S,4aS,5aR,12aS)-4-Dimethylamino-7-(ethoxyamino-methyl)-3,10,12,12a-tetrahydroxy-1,11-dioxo-1,4,4a,5,5a,6,11,12a-octahydro-naphthacene-2-carboxylic acid amide] | 4 to 8 (≈ 8.2 to 16.4 µM) | 4 to 8 (≈ 8.2 to 16.4 µM) | 4 to 8 (≈ 8.2 to 16.4 µM) | < 4 | < 4 | < 4 | < 4 | > 75 | > 75 | 100 |
| CN(C)[C@H]1C(O)=C(C(N)=O)C(=O)[C@@]2(O)C(O)=C3C(=O)c4cccc(-c5ncccn5)c4C[C@H]3C[C@@H]12 [H] | > 8 | > 8 | > 8 | 4 to 8 (≈ 8.39 to 16.8 µM) | 4 to 8 (≈ 8.39 to 16.8 µM) | < 4 | < 4 | > 75 | > 75 |  |
| CN(C)[C@@H]1C(O)=C(C(N)=O)C(=O)[C@@]2(O)C(O)=C3C(=O)c4c(O)ccc(-c5cnoc5)c4C[C@H]3C[C@@H]12 [K] | < 4 | < 4 | < 4 | < 4 | < 4 | < 4 | < 4 | < 35 | < 35 |  |
| CN(C)[C@@H]1C(O)=C(C(N)=O)C(=O)[C@@]2(O)C(O)=C3C(=O)c4c(O)ccc(-c5nccs5)c4C[C@H]3C[C@@H]12 [L] | < 4 | < 4 | < 4 | < 4 | < 4 | < 4 | < 4 | < 35 | < 35 |  |

Continued, in another order:

| MIC [1] [µg/mL] | MIC (E. coli ATCC 25922) [µg/mL] | MIC (E. coli MG 1655) [µg/mL] | MIC (P. acnes ATCC 11827) [µg/mL] | MIC (P. acnes ATCC 6919) [µg/mL] | MIC (S. aureus RN450 [2]) [µg/mL] | MIC [3] [µg/mL] | IC50 at 24 h (in vitro; African green monkey) [µg/mL] | IC50 at 24 h (in vitro; Chinese hamster) [µg/mL] | SMILES | responders at 5 mg/kg (S. aureus RN450 [4]) [%] |
| --- | --- | --- | --- | --- | --- | --- | --- | --- | --- | --- |
| < 4 | < 4 | < 4 | < 4 | < 4 | < 4 | < 4 | < 35 | < 35 | CN(C)[C@@H]1C(O)=C(C(N)=O)C(=O)[C@@]2(O)C(O)=C3C(=O)c4c(O)ccc(-c5ncco5)c4C[C@H]3C[C@@H]12 [J] |  |
| 4 to 8 (≈ 7.77 to 15.5 µM) | < 4 | 4 to 8 (≈ 7.77 to 15.5 µM) | < 4 | < 4 | < 4 | < 4 | > 75 | > 75 | CCO/N=C(\C)c1cc(N)c(O)c2c1C[C@H]1C[C@H]3[C@H](N(C)C)C(O)=C(C(N)=O)C(=O)[C@@]3(O)C(O)=C1C2=O [M] |  |
| < 4 | < 4 | 4 to 8 (≈ 6.68 to 13.4 µM) | < 4 | < 4 | < 4 | < 4 | > 75 | > 75 | CCO/N=C(\C)c1cc(CNCC(C)(C)C)c(O)c2c1C[C@H]1C[C@H]3[C@H](N(C)C)C(O)=C(C(N)=O)C(=O)[C@@]3(O)C(O)=C1C2=O [N] |  |
| < 4 | < 4 | < 4 | < 4 | < 4 | < 4 | < 4 | 35 to 75 (≈ 59.9 to 128 µM) | < 35 | CN(C)CC/C(=N\OC(C)(C)C)c1ccc(O)c2c1C[C@H]1C[C@H]3[C@H](N(C)C)C(O)=C(C(N)=O)C(=O)[C@@]3(O)C(O)=C1C2=O [O] |  |

From patent US9012433B2, “Substituted tetracycline compounds” (Paratek Pharmaceuticals, Inc., priority 2006, dated 2015)
